Key:
Format in all cases: in vivo
Parameters in all cases: key: 5=total damage to plant; 0=no damage to plant
[1] = test system: Alopecurus myosuroides (ALOMY); experiment: Pre-emergence herbicidal activity, glasshouse pot test; conditions: Rate 1000 g/ha; sprayed one day after sowing; evaluated after 13 days
Method: (§1) Seeds of a variety of test species were sown in standard soil in pots: Triticum aestivium (TRZAW), Avena fatua (AVEFA), Alopecurus myosuroides (ALOMY), Echinochloa crus-galli (ECHCG), Lolium perenne (LOLPE), and Setaria faberi (SETFA). After cultivation for one day (pre-emergence) under controlled conditions in a glasshouse (at 24/16° C., day/night; 14 hours light; 65% humidity), the plants were sprayed with an aqueous spray solution derived from the formulation of the technical active ingredient in acetone/water (50:50) solution containing 0.5% Tween 20 (polyoxyethelyene sorbitan monolaurate, CAS RN 9005-64-5). The test plants were then grown in a glasshouse under controlled conditions (at 24/16° C., day/night; 14 hours light; 65% humidity) and watered twice daily. After 13 days, the test was evaluated (5=total damage to plant; 0=no damage to plant).

Avena fatua (AVEFA) [2] = experiment: as above; conditions: Rate 1000 g/ha; sprayed one day after sowing; evaluated after 13 days
Method: as §1

[3] = test system: Echinochloa crus-galli (ECHCG); experiment: as above; conditions: Rate 1000 g/ha; sprayed one day after sowing; evaluated after 13 days
Method: as §1

Lolium perenne (LOLPE) [4] = experiment: as above; conditions: Rate 1000 g/ha; sprayed one day after sowing; evaluated after 13 days
Method: as §1

Setaria faberi (SETFA) [5] = experiment: as above; conditions: Rate 1000 g/ha; sprayed one day after sowing; evaluated after 13 days
Method: as §1

[6] = test system: Triticum aestivium (TRZAW); experiment: as above; conditions: Rate 1000 g/ha; sprayed one day after sowing; evaluated after 13 days
Method: as §1

[7] = test system: Alopecurus myosuroides (ALOMY); experiment: Post-emergence herbicidal activity, glasshouse pot test; conditions: Rate 1000 g/ha; sprayed after 8 days cultivation; evaluated after 13 days
Method: (§2) Seeds of a variety of test species were sown in standard soil in pots: Triticum aestivium (TRZAW), Avena fatua (AVEFA), Alopecurus myosuroides (ALOMY), Echinochloa crus-galli (ECHCG), Lolium perenne (LOLPE), and Setaria faberi (SETFA). After 8 days cultivation (post-emergence) under controlled conditions in a glasshouse (at 24/16° C., day/night; 14 hours light; 65% humidity), the plants were sprayed with an aqueous spray solution derived from the formulation of the technical active ingredient in acetone/water (50:50) solution containing 0.5% Tween 20 (polyoxyethelyene sorbitan monolaurate, CAS RN 9005-64-5). The test plants were then grown in a glasshouse under controlled conditions (at 24/16° C., day/night; 14 hours light; 65% humidity) and watered twice daily. After 13 days, the test was evaluated (5=total damage to plant; 0=no damage to plant).

Avena fatua (AVEFA) [8] = experiment: as above; conditions: Rate 1000 g/ha; sprayed after 8 days cultivation; evaluated after 13 days
Method: as §2

[9] = test system: Echinochloa crus-galli (ECHCG); experiment: as above; conditions: Rate 1000 g/ha; sprayed after 8 days cultivation; evaluated after 13 days
Method: as §2

Lolium perenne (LOLPE) [10] = experiment: as above; conditions: Rate 1000 g/ha; sprayed after 8 days cultivation; evaluated after 13 days
Method: as §2

Setaria faberi (SETFA) [11] = experiment: as above; conditions: Rate 1000 g/ha; sprayed after 8 days cultivation; evaluated after 13 days
Method: as §2

[12] = test system: Triticum aestivium (TRZAW); experiment: as above; conditions: Rate 1000 g/ha; sprayed after 8 days cultivation; evaluated after 13 days
Method: as §2

Compound	Control of weed species after pre-emergence application, ALOMY (damage score 0-5) [1]	Control of weed species after pre-emergence application, AVEFA (damage score 0-5) (Avena fatua (AVEFA) [2])	Control of weed species after pre-emergence application, ECHCG (damage score 0-5) [3]	Control of weed species after pre-emergence application, LOLPE (damage score 0-5) (Lolium perenne (LOLPE) [4])	Control of weed species after pre-emergence application, SETFA (damage score 0-5) (Setaria faberi (SETFA) [5])	Control of weed species after pre-emergence application, TRAZW (damage score 0-5) [6]	Control of weed species after post-emergence application, ALOMY (damage score 0-5) [7]	Control of weed species after post-emergence application, AVEFA (damage score 0-5) (Avena fatua (AVEFA) [8])	Control of weed species after post-emergence application, ECHCG (damage score 0-5) [9]	Control of weed species after post-emergence application, LOLPE (damage score 0-5) (Lolium perenne (LOLPE) [10])	Control of weed species after post-emergence application, SETFA (damage score 0-5) (Setaria faberi (SETFA) [11])	Control of weed species after post-emergence application, TRAZW (damage score 0-5) [12]
CC(C)(C)OC(=O)N(C(=O)OC(C)(C)C)c1ncc(-c2cncnc2)nc1C(F)(F)F [Compound H1]	0	2	4	1	4	0	0	4	5	3	5	0
Cc1nc(-c2cncc(F)c2)cnc1N(C(=O)OC(C)(C)C)C(=O)OC(C)(C)C [Compound H2, 2-bis(tert-butoxycarbonyl)amino-3-methyl-5-(5-fluoropyrid-3-yl)pyrazine]	0	2	4	2	5	0	0	3	5	2	5	0
CC(C)(C)OC(=O)Nc1ncc(-c2cncc(F)c2)nc1C(F)(F)F [Compound H4]	0	3	4	1	5	0	0	3	5	2	5	1
CC(C)(C)OC(=O)N(C(=O)OC(C)(C)C)c1ncc(-c2cncc(F)c2)nc1C(F)(F)F [Compound H5]	0	2	5	1	5	0	0	3	5	2	5	1
COc1nc(-c2cncc(F)c2)cnc1N(C(=O)OC(C)(C)C)C(=O)OC(C)(C)C [Compound H6]	0	1	3	0	4	1	0	2	3	1	4	1
COc1nc(-c2cncc(F)c2)cnc1NC(=O)OC(C)(C)C [Compound H7]	0	1	3	0	5	0	0	3	5	2	5	1
CC(C)(C)OC(=O)N(C(=O)OC(C)(C)C)c1ncc(-c2cncc(F)c2)nc1OCc1ccccc1 [Compound H8]	0	0	1	1	2	0	0	1	1	0	1	0
CC(C)(C)OC(=O)N(C(=O)OC(C)(C)C)c1ncc(-c2cncc(F)c2)nc1C#N [Compound H9]	0	1	2	1	5	0	0	3	3	1	5	0
Cc1nc(-c2cncc(F)c2)cnc1NC(=O)OC(C)(C)C [Compound H17]	0	2	4	3	4	0	2	3	4	3		0
